Reference: PubChem BioAssay AID463206 (Broad Institute, 2010)
Active and inactive are the calls of the source.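 Rule for the calls: active = caspase luminescence falls with dose and the half-maximal concentration AC50 from the fitted curve is at or below a set limit; inconclusive = flat fit at 30 to 70% signal loss, or invalid fit; inactive = AC50 above the limit, or signal rises instead.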

Tested on: INS-1E cytokine-induced caspase-3/7, Caspase-Glo luminescence, 48 h
Assay: suppression of cytokine-driven beta-cell apoptosis – INS-1E rat cells, luminescence, orthogonal assay for beta-cell apoptosis protection project, dose response (AID 463206)

Row | SMILES | AC50
1 | CCc1ccc(-n2c(C)cc(/C=N/NC(=O)c3ccncc3)c2C)cc1 | > 26 µM (inactive)
2 | Cc1ccc(-c2csc(NC(=O)c3c(C)noc3C)n2)s1 | > 26 µM (inactive)
3 | OC(CNC1CCCCC1)COCCOc1ccc(Br)cc1 (stereo not drawn) | > 12 µM (inactive)
4 | CCc1ccc2[nH]c3nc(N/N=C/c4ccc(O)cc4O)nnc3c2c1 | > 12 µM (inactive)
5 | Cc1cccnc1Nc1nc(-c2ccccn2)cs1 | > 26 µM (inactive)
6 | CNC[C@H](Cc1ccccc1)NC[C@@H](Cc1cccc2ccccc12)NCCc1ccc(C)cc1 | > 26 µM (inactive)
7 | O=C(Nc1cccnc1)C1(F)C(F)(F)C(F)(F)C(F)(F)C(F)(F)C1(F)F | > 26 µM (inactive)
8 | c1ccc2c(c1)OCC(CNc1ncnc3sccc13)O2 (stereo not drawn) | > 26 µM (inactive)
9 | CC1CCC(C(C)C)C(OC(=O)Cn2c(-c3ccccc3)[n+](C)c3ccccc32)C1 (stereo not drawn) | > 26 µM (inactive)
10 | CC(C)(C)C1C/C(=C/c2ccccn2)C(=O)/C(=C/c2ccccn2)C1 (stereo not drawn) | > 26 µM (inactive)
11 | CCc1c(C2(O)CCCCC2)[nH]c2cc(C(F)(F)F)ccc12 | > 26 µM (inactive)
12 | CCOC(=O)c1[nH]cnc1N=Nc1c(O)ccc2ccccc12 | > 26 µM (inactive)
13 | CC(=O)N1CCc2cc(S(=O)(=O)NCCC3=CCCCC3)ccc21 | > 12 µM (inactive)
14 | CC1CCN(C(=O)CCNS(=O)(=O)c2ccc(Br)cc2)CC1 | > 26 µM (inactive)
15 | N#CC1=C(N)N2C(=C(C#N)C1c1ccc(Br)cc1)Nc1ccccc12 (stereo not drawn) | > 26 µM (inactive)
16 | CCC(CO)Oc1cc(NCc2ccc(C(C)(C)C)cc2)c2ncn(C(C)C)c2c1 (stereo not drawn) | > 26 µM (inactive)
17 | COc1ccccc1C(=O)Nc1nc2ccccc2[nH]1 | > 26 µM (inactive)
18 | Cc1ccc(Sc2cc(C)nc(-c3ccccn3)n2)cc1 | > 12 µM (inactive)
19 | COc1ccc2nc(C)cc(N/N=C/c3ccc(F)cc3)c2c1 | > 26 µM (inactive)
20 | CC(=O)c1c(C)oc2ccc(N(C(C)=O)S(=O)(=O)c3cccc4cccnc34)cc12 | > 26 µM (inactive)
21 | Cc1sc2ncnc(N3CCN(CCOc4ccc(Cl)cc4)CC3)c2c1C | > 26 µM (inactive)
22 | Cc1ccc(C(=O)C[n+]2cc(-c3ccccc3)n3c2CCCCC3)cc1 | > 26 µM (inactive)
23 | O=C(N/N=C/c1cc([N+](=O)[O-])ccc1O)c1cccc2cc[nH]c12 | > 26 µM (inactive)
24 | [O-]c1ccccc1-[n+]1c(-c2ccccc2)cc(-c2ccccc2)cc1-c1ccccc1 | > 26 µM (inactive)

Row | SMILES | AC50
25 | C=C[C@H](Cc1ccccc1)N(Cc1ccccc1)S(=O)(=O)N(Cc1ccccc1)[C@H](C=C)Cc1ccccc1 | > 26 µM (inactive)
26 | O=C(Nc1ccc2nc3n(c(=O)c2c1)CCCCC3)c1c(F)ccc([N+](=O)[O-])c1F | > 26 µM (inactive)
27 | O=C(NCc1cccnc1)/C(=C\c1ccc(-c2ccc(Br)cc2)o1)S(=O)(=O)c1ccccc1 | > 26 µM (inactive)
28 | COc1ccc(Br)cc1CN1CCN(Cc2c[nH]c3ccccc23)CC1 | > 26 µM (inactive)
29 | CSc1ccccc1OCc1cc(C(=O)N2CCc3c(Cl)cccc3C2)no1 | > 26 µM (inactive)
30 | O=C1c2ccc3c4c(ccc(c24)C(=O)N1c1cccc(O)c1)C(=O)N(c1cccc(O)c1)C3=O | > 26 µM (inactive)
31 | C/C(=N/NC(=O)c1cccs1)c1c(C)[nH]n(-c2nc3ccccc3s2)c1=O | > 26 µM (inactive)
32 | c1ccc(CNc2c3ccccc3nc3ccccc23)cc1 | 6.14 µM
33 | O=S(=O)(c1cc(F)ccc1F)N1CCN(c2ncnc3ccccc23)CC1 | > 26 µM (inactive)
34 | CCN(CC)S(=O)(=O)c1ccc(N/N=C/c2cc(OC)ccc2O)nc1 | > 26 µM (inactive)
35 | CC(=O)c1cccc(NS(=O)(=O)c2ccc(N/C=C\C(=O)c3ccc(F)cc3)cc2)c1 | > 26 µM (inactive)
36 | O=C(Nc1nc(-c2ccccn2)cs1)Nc1ccc(F)cc1F | > 26 µM (inactive)
37 | CCOc1ccc(C(=O)N/N=C(\c2ccccc2)c2ccccn2)cc1 | > 26 µM (inactive)
38 | C[C@H]1CCC/C=C/C2C[C@H](O)CC2[C@H](O)/C=C/C(=O)O1 (stereo partly drawn) | > 26 µM (inactive)
39 | CCOC(=O)c1ccc(NC(=O)NCc2cccnc2)cc1 | > 26 µM (inactive)
40 | CCCCS(=O)(=O)/C=C\C=C/S(=O)(=O)CCCC | > 26 µM (inactive)
41 | Cc1cccc(Oc2cc(NC(=O)c3ccccc3)cc([N+](=O)[O-])c2)c1 | > 26 µM (inactive)
42 | OC(c1cc(-c2ccc(Cl)cc2)nc2ccccc12)C1CCCCN1 (stereo not drawn) | > 26 µM (inactive)
43 | C=C(C)C(=O)O[C@H]1C/C(C)=C\C(=O)/C=C(\C)[C@H](O)[C@@H]2OC(=O)C(=C)[C@@H]21 | 3 µM
44 | COc1ccc(-n2c(-c3ccc(Cl)cc3)c[n+]3c2CCc2ccccc2-3)cc1 | > 26 µM (inactive)
45 | O=C(C(Cl)Cl)N1c2ccccc2OCC1c1ccccc1 (stereo not drawn) | > 26 µM (inactive)
46 | N#C/C(=C/c1ccc(N2CCCCCC2)o1)c1ccc(Cl)cc1 | > 26 µM (inactive)
47 | C=CCNC1=C(Cl)C(=O)c2ccccc2C1=O | > 26 µM (inactive)
48 | Cc1ccc(OCCN2CCN(c3ncnc4sc(C)c(C)c34)CC2)cc1 | > 26 µM (inactive)
